# Measurements: US12371454B2, “Cyclic peptide compound having Kras inhibitory action” (priority 2019, dated 2025)
# Starred links: 1 amine or outer side, 2 acyl side, 3 side chain; linkers in the order of their positions; H or OH if unused. Positions of bridges follow the written chain, without caps; N, C: chain ends. Non-standard residues stand in square brackets, D forms with d. Residues, ends and D or L forms follow the SMILES beside them. *: point of attachment. hPhe(3,5-F2-4-CF3) = N[C@@H](CCc1cc(F)c(C(F)(F)F)c(F)c1)C(=O)O; hPhe(3-Cl-4-CF3) = N[C@@H](CCc1ccc(C(F)(F)F)c(Cl)c1)C(=O)O; NMeDab(N,N-(CH2CF2CH2)) = CN[C@@H](CCN1CC(F)(F)C1)C(=O)O; hPhe(3-F,4-CF3) = N[C@@H](CCc1ccc(C(F)(F)F)c(F)c1)C(=O)O; NMePhe(4-CF3) = CN[C@@H](Cc1ccc(C(F)(F)F)cc1)C(=O)O; X51 = O=C([C@H](Cc1cc(F)cc(I)c1)N[*:1])[*:2]; NMePhe(4-Me) = CN[C@@H](Cc1ccc(C)cc1)C(=O)O; NMePhe(4-F) = CN[C@@H](Cc1ccc(F)cc1)C(=O)O; NMedβ3hAla = C[C@H](CC(=O)[*:2])N(C)[*:1]; X79 = CC(C)CCOC[C@H](CC(=O)[*:2])N[*:1]; NMeGly(cPent) = CN[C@H](C(=O)O)C1CCCC1; Pro(4,4-F2) = O=C(O)[C@@H]1CC(F)(F)CN1; NMeY = CN[C@@H](Cc1ccc(O)cc1)C(=O)O; NMeCha = CN[C@@H](CC1CCCCC1)C(=O)O; NMeI = CC[C@H](C)[C@H](NC)C(=O)O; NMeD = CN[C@@H](CC(=O)O)C(=O)O; NMeL = CN[C@@H](CC(C)C)C(=O)O; NMeV = CN[C@H](C(=O)O)C(C)C; NMeAbu = CC[C@H](NC)C(=O)O; NMeS = CN[C@@H](CO)C(=O)O; dPip = O=C(O)[C@H]1CCCCN1; NMeA = CN[C@@H](C)C(=O)O; NMeAib = CNC(C)(C)C(=O)O; Nle = CCCC[C@H](N)C(=O)O; Piperidide = C1CCN(*)CC1; Ac5c = NC1(C(=O)O)CCCC1; Aze = O=C(O)[C@@H]1CCN1; Thp = NC1(C(=O)O)CCOCC1; Cyclopropyl = C1CC1*; Sar = CNCC(=O)O
# Molecular target: T1, Kras and SOS1 (biotin-tagged human Kras loaded with GDP, His-tagged human SOS1) (Homo sapiens, UniProt P01116, G12D)
# T1 construct: made in house; host or cells: E. coli (stated for Kras only)
# Experiment: Protein-protein interaction inhibition between Kras and SOS1 (KrasGl2D-SOS PPI) using AlphaScreen
# Format: binding
# Conditions: AlphaScreen; biotin-tagged human Kras loaded with GDP, His-tagged human SOS1; read-out: KRAS G12D-SOS PPI IC50
# Description: Protein-Protein Interaction Inhibition Between Kras and SOS1 (KrasGl2D-SOS PPI) Using AlphaScreen
# Protein-protein interaction inhibition (PPI) between Kras and SOS1 was measured by energy transfer from nickel-conjugated donor beads to streptavidin-conjugated acceptor beads using biotin-tagged human Kras expressed in E. coli and loaded with GDP after purification and His-tagged human SOS1 enzyme. This measurement utilizes the phenomenon in which donor beads are irradiated with light at 680 nm, such that energy is transferred to acceptor beads through singlet oxygen and light at 520-620 nm is detected from the acceptor beads.
# Inhibition of binding between K-ras and SOS1 is known to inhibit signaling downstream of Kras.
# T1 sequence (P01116 1-188 isoform P01116-2 G12D): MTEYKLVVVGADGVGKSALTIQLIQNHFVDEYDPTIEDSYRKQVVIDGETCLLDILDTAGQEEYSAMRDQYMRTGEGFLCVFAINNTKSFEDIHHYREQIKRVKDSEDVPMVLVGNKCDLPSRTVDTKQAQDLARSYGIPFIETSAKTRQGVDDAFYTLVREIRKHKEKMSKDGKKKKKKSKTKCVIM
row,Structure (SMILES),IC50 [µM]
1,CC[C@H](C)[C@@H]1NC(=O)[C@H](C)N(C)C(=O)C[C@@H](C(=O)N2CCCCC2)N(C)C(=O)[C@H](C(C)C)N(C)C(=O)C2(CCCC2)NC(=O)[C@@H]2CCCN2C(=O)[C@H](CCc2ccc(C(F)(F)F)c(Cl)c2)NC(=O)[C@H]2CCCCN2C(=O)[C@H](CC2CCCCC2)N(C)C(=O)[C@@H]2CCN2C(=O)[C@H](C)N(C)C1=O [Compound 349] ([NMeA]I[NMeA][Aze][NMeCha][dPip][hPhe(3-Cl-4-CF3)]P[Ac5c][NMeV][NMeD]-Piperidide; lactam N-11),0.19
2,CC[C@H](C)[C@@H]1NC(=O)[C@H](CC(C)C)N(C)C(=O)C[C@@H](COCCC(C)C)NC(=O)[C@H](C(C)C)N(C)C(=O)C2(CCCC2)NC(=O)[C@@H]2CCCN2C(=O)[C@H](CCc2ccc(C(F)(F)F)c(Cl)c2)NC(=O)CN(C)C(=O)[C@H](CC2CCCCC2)N(C)C(=O)CN(C)C(=O)CN(C)C1=O [Compound 992] (cyclo([Ac5c][NMeV][X79][NMeL]I[Sar][Sar][NMeCha][Sar][hPhe(3-Cl-4-CF3)]P)),0.18
3,CC[C@H](C)[C@@H]1NC(=O)[C@H](CC(C)C)N(C)C(=O)C[C@@H](C(=O)N2CCCCC2)N(C)C(=O)[C@H](COC2CC2)N(C)C(=O)C2(CCCC2)NC(=O)[C@@H]2CCCN2C(=O)[C@H](CCc2ccc(C(F)(F)F)c(Cl)c2)NC(=O)CN(C)C(=O)[C@H](CC2CCCCC2)N(C)C(=O)CN(C)C(=O)CN(C)C1=O [Compound 1857] ([NMeL]I[Sar][Sar][NMeCha][Sar][hPhe(3-Cl-4-CF3)]P[Ac5c][NMeS](Cyclopropyl)[NMeD]-Piperidide; lactam N-11),0.019
4,"CC[C@H](C)[C@@H]1NC(=O)[C@H](C)N(C)C(=O)C[C@@H](C(=O)N2CCCCC2)N(C)C(=O)[C@H](C(C)C)N(C)C(=O)[C@H](COC)NC(=O)[C@H](CCN2CC(F)(F)C2)N(C)C(=O)[C@H](CCc2ccc(C(F)(F)F)c(Cl)c2)NC(=O)CN(C)C(=O)[C@H](CC2CCCCC2)N(C)C(=O)CN(C)C(=O)CN(C)C1=O [Compound 655] ([NMeA]I[Sar][Sar][NMeCha][Sar][hPhe(3-Cl-4-CF3)][NMeDab(N,N-(CH2CF2CH2))]S(Me)[NMeV][NMeD]-Piperidide; lactam N-11)",0.0049
5,"CC[C@H](C)[C@@H]1NC(=O)[C@H](CC(C)C)N(C)C(=O)C[C@@H](C)N(C)C(=O)[C@H](C2CCCC2)N(C)C(=O)C2(CCCC2)NC(=O)[C@@H]2CC(F)(F)CN2C(=O)[C@H](CCc2ccc(C(F)(F)F)c(Cl)c2)NC(=O)CN(C)C(=O)[C@H](Cc2ccc(C(F)(F)F)cc2)N(C)C(=O)CN(C)C(=O)CN(C)C1=O [Compound 611] (cyclo([Ac5c][NMeGly(cPent)][NMedβ3hAla][NMeL]I[Sar][Sar][NMePhe(4-CF3)][Sar][hPhe(3-Cl-4-CF3)][Pro(4,4-F2)]))",0.0033
6,CCCC[C@@H]1NC(=O)[C@H](Cc2cc(F)cc(I)c2)NC(=O)CN(C)C(=O)[C@H](Cc2ccc(OC)cc2)N(C)C(=O)[C@@H]2CCN2C(=O)[C@H](C)N(C)C(=O)[C@H]([C@@H](C)CC)NC(=O)[C@H](CC)N(C)C(=O)C[C@@H](C(=O)N2CCCCC2)N(C)C(=O)[C@H](CC(C)C)NC(=O)C(C)(C)N(C)C1=O [Compound 1226] ([NMeAbu]I[NMeA][Aze][NMeY](Me)[Sar][X51][Nle][NMeAib]L[NMeD]-Piperidide; lactam N-11),0.015
7,"CC[C@H](C)[C@@H]1NC(=O)[C@H](CC(C)C)N(C)C(=O)C[C@@H](C(=O)N(C)C)N(C)C(=O)[C@H]([C@@H](C)CC)N(C)C(=O)C2(CCCC2)NC(=O)[C@H](Cc2ccc(F)cc2)N(C)C(=O)[C@H](CCc2cc(F)c(C(F)(F)F)c(F)c2)NC(=O)CN(C)C(=O)[C@H](Cc2ccc(C)cc2)N(C)C(=O)[C@@H]2CCN2C(=O)[C@H](C)N(C)C1=O [Compound 1952] ([NMeL]I[NMeA][Aze][NMePhe(4-Me)][Sar][hPhe(3,5-F2-4-CF3)][NMePhe(4-F)][Ac5c][NMeI][NMeD]-NMe2; lactam N-11)",0.0081
8,CC[C@H](C)[C@@H]1NC(=O)[C@H](CC(C)C)N(C)C(=O)C[C@@H](C(=O)N(C)C)N(C)C(=O)[C@H](C2CCCC2)N(C)C(=O)C2(CCCC2)NC(=O)[C@@H]2CCCN2C(=O)[C@H](CCc2ccc(C(F)(F)F)c(Cl)c2)NC(=O)CN(C)C(=O)[C@H](Cc2ccc(C)cc2)N(C)C(=O)[C@@H]2CCN2C(=O)[C@H](C)N(C)C1=O [Compound 1756] ([NMeL]I[NMeA][Aze][NMePhe(4-Me)][Sar][hPhe(3-Cl-4-CF3)]P[Ac5c][NMeGly(cPent)][NMeD]-NMe2; lactam N-11),0.00054
9,"CC[C@H](C)[C@@H]1NC(=O)[C@H](CC(C)C)N(C)C(=O)C[C@@H](C)N(C)C(=O)[C@H](CC(C)C)N(C)C(=O)C2(CCOCC2)NC(=O)[C@@H]2CCCN2C(=O)[C@H](CCc2ccc(C(F)(F)F)c(F)c2)NC(=O)CN(C)C(=O)[C@H](CC2CCCCC2)N(C)C(=O)CN(C)C(=O)CN(C)C1=O [Compound 407] (cyclo(I[Sar][Sar][NMeCha][Sar][hPhe(3-F,4-CF3)]P[Thp][NMeL][NMedβ3hAla][NMeL]))",0.039
